Data reported in patent US20100130516A1, “PURINYL DERIVATIVES AND THEIR USE AS POTASSIUM CHANNEL MODULATORS” (NeuroSearch A/S, priority 2007, published 2010).

Molecular target: T1, hSK3 channels (Homo sapiens, UniProt Q9UGI6)
T1 construct: expressed in transfected cells; host or cells: HEK293
Test: Whole-cell patch-clamp recording of ionic current through SK channels (subtype 3)
Type: cell-based
Conditions: HEK293 cells expressing hSK3 channels
Experimental: The ionic current through small-conductance Ca^2+-activated K^+ channels (SK channels, subtype 3) is recorded using the whole-cell configuration of the patch-clamp technique in a classic patch-clamp set-up using HEK293 tissue culture cells expressing hSK3 channels as described in e.g. WO 2006/100212.
The SC100 value determined is defined as the Stimulating Concentration required for increasing the baseline current by 100%. The below SC100 value is an indication of the SK3 activating properties of the compound of the invention.

Cc1ccn(-c2nc(Nc3ccc(F)c(F)c3)c3ncn(C)c3n2)n1 [Compound 5.1, (3,4-Difluoro-phenyl)-[9-methyl-2-(3-methyl-pyrazol-1-yl)-9H-purin-6-yl]-amine]
SC100 (Stimulating Concentration required for increasing the baseline current by 100%): 0.04 µM
